Results on 24 compounds are retold here after US6667312B2, “Thioether substituted imidazoquinolines” (3M Innovative Properties Company, priority 2000, dated 2003).

Usually melting point stands for the temperature, or range, at which the solid turns liquid.

Data set [1] has as its system tumor necrosis factor (α). Put plainly: Cytokine Induction in Human Cells: tumor necrosis factor. The format is cell-based. The arrangement: key to Lowest Effective Concentration (μM) Tumor Necrosis Factor: A “*” indicates that no induction was seen at any of the tested concentrations. As to conditions: human PBMC, 18 to 24 hours, tested 30-0.014 μM, TNF by ELISA or IGEN assay; for minimal effective concentration: read-out: Lowest Effective Concentration (μM) Tumor Necrosis Factor. From the text:
(§1) An in vitro human blood cell system is used to assess cytokine induction. Activity is based on the measurement of interferon and tumor necrosis factor (α) (IFN and TNF, respectively) secreted into culture media as described by Testerman et. al. In “Cytokine Induction by the Immunomodulators Imiquimod and S-27609”, Journal of Leukocyte Biology, 58, 365-372 (September, 1995).
(§2) Whole blood from healthy human donors is collected by venipuncture into EDTA vacutainer tubes. Peripheral blood mononuclear cells (PBMC) are separated from whole blood by density gradient centrifugation using Histopaque®-1077. Blood is diluted 1:1 with Dulbecco's Phosphate Buffered Saline (DPBS) or Hank's Balanced Salts Solution (HBSS). The PBMC layer is collected and washed twice with DPBS or HBSS and resuspended at 4×10^6 cells/mL in RPMI complete. The PBMC suspension is added to 48 well flat bottom sterile tissue culture plates (Costar, Cambridge, Mass. or Becton Dickinson Labware, Lincoln Park, N.J.) containing an equal volume of RPMI complete media containing test compound.
(§3) The compounds are solubilized in dimethyl sulfoxide (DMSO). The DMSO concentration should not exceed a final concentration of 1% for addition to the culture wells. The compounds are generally tested at concentrations ranging from 30-0.014 μM.
(§4) The solution of test compound is added at 60 μM to the first well containing RPMI complete and serial 3 fold dilutions are made in the wells. The PBMC suspension is then added to the wells in an equal volume, bringing the test compound concentrations to the desired range (30-0.014 μM). The final concentration of PBMC suspension is 2×10^6 cells/mL. The plates are covered with sterile plastic lids, mixed gently and then incubated for 18 to 24 hours at 37° C. in a 5% carbon dioxide atmosphere.
(§5) Following incubation the plates are centrifuged for 10 minutes at 1000 rpm (˜200× g) at 4° C. The cell-free culture supernatant is removed with a sterile polypropylene pipet and transferred to sterile polypropylene tubes. Samples are maintained at −30 to −70° C. until analysis. The samples are analyzed for interferon (α) by ELISA and for tumor necrosis factor (α) by ELISA or IGEN Assay
Tumor necrosis factor (α) (TNF) concentration is determined using ELISA kits available from Biosource International, Camarillo, Calif. Alternately, the TNF concentration can be determined by Origen® M-Series Immunoassay and read on an IGEN M-8 analyzer from IGEN International, Gaithersburg, Md. The immunoassay uses a human TNF capture and detection antibody pair from Biosource International, Camarillo, Calif. Results are expressed in pg/mL.
(§6) The table below lists the lowest concentration found to induce interferon and the lowest concentration found to induce tumor necrosis factor for each compound.

The test system of data set [2] is interferon (α). Put plainly: Cytokine Induction in Human Cells: interferon. Type of data set: cell-based. As to conditions: human PBMC, 18 to 24 hours, tested 30-0.014 μM, interferon (α) by ELISA; read-out: Lowest Effective Concentration (μM) Interferon.
Description: as §1, §2, §3, §4, §5
Interferon (α) concentration is determined by ELISA using a Human Multi-Species kit from PBL Biomedical Laboratories, New Brunswick, N.J. Results are expressed in pg/mL.
as §6
(In general: An ELISA detects its analyte on a solid surface through an enzyme-linked reagent.)

For `CCCCc1nc2c(N)nc3ccccc3c2n1CCCCSc1ccccc1` [Example 1, 2-butyl-1-[4-(phenylthio)butyl]-1H-imidazo[4,5-c]quinolin-4-amine], the melting point lay in the range of 118 to 120 °C. For the same compound, the minimal effective concentration in data set [1] stood at 0.12 µM. In addition, the minimal effective concentration in data set [2] is 0.12 µM.

In the case of `CCCCc1nc2c(N)nc3ccccc3c2n1CCCCS(=O)(=O)c1ccccc1` [Example 3, 2-butyl-1-[4-(phenylsulfonyl)butyl]-1H-imidazo[4,5-c]quinolin-4-amine], the melting point lay in the range of 179 to 180 °C. For the same compound, the minimal effective concentration in data set [1] was 0.12 µM. The minimal effective concentration in data set [2] is 0.04 µM.

`CCCCc1nc2c(N)nc3ccccc3c2n1CCCCSC` [Example 4, 2-butyl-1-[4-(methylthio)butyl]-1H-imidazo[4,5-c]quinolin-4-amine]: the melting point is 127 to 130 °C. Further, the minimal effective concentration in data set [1] was found to be 0.01 µM. Besides, in data set [2], the minimal effective concentration was found to be 0.01 µM.

As for `CCCCc1nc2c(N)nc3ccccc3c2n1CCCCS(C)(=O)=O` [Example 5, 2-butyl-1-[4-(methylsulfonyl)butyl]-1H-imidazo[4,5-c]quinolin-4-amine], the melting point lay within 164 to 165 °C. Also, the minimal effective concentration in data set [1] came out at 0.04 µM. Besides, the minimal effective concentration in data set [2] is 0.01 µM.

In turn, `Nc1nc2ccccc2c2c1ncn2CCSc1ccccc1` [Example 6, 1-[2-(phenylthio)ethyl]-1H-imidazo[4,5-c]quinolin-4-amine] displayed a melting point of 233 to 235 °C. The minimal effective concentration in data set [1] was 10 µM. For the same compound, the minimal effective concentration in data set [2] came out at 3.33 µM.

As for `Nc1nc2ccccc2c2c1ncn2CCCCS(=O)(=O)c1ccccc1` [Example 7, 1-[4-(phenylsulfonyl)butyl]-1H-imidazo[4,5-c]quinolin-4-amine], the melting point fell in the range of 175 to 177 °C. In addition, the minimal effective concentration in data set [1] is 10 µM. Moreover, the minimal effective concentration in data set [2] is 3.33 µM.

Compound `CS(=O)(=O)CCCCn1cnc2c(N)nc3ccccc3c21` [Example 8, 1-[4-(methylsulfonyl)butyl]-1H-imidazo[4,5-c]quinolin-4-amine] returned a melting point of 203 to 204 °C. For the same compound, in data set [1], the “Lowest Effective Concentration (μM) Tumor Necrosis Factor” value is reported as “*”. The minimal effective concentration in data set [2] turned out to be 10 µM.

For the compound `Nc1nc2ccccc2c2c1ncn2CCCCSc1ccccc1` [Example 9, 1-[4-(phenylthio)butyl]-1H-imidazo[4,5-c]quinolin-4-amine], the melting point was 158 to 160 °C. Also, the minimal effective concentration in data set [1] was found to be 3.33 µM. Besides, the minimal effective concentration in data set [2] stood at 3.33 µM.

Turning to `CSCCCCn1cnc2c(N)nc3ccccc3c21` [Example 10, 1-[4-(methylthio)butyl]-1H-imidazo[4,5-c]quinolin-4-amine], the melting point lay within 163 to 164 °C. Also, the minimal effective concentration in data set [1] is 1.11 µM. Besides, the minimal effective concentration in data set [2] is 1.11 µM.

As for `Cc1nc2c(N)nc3ccccc3c2n1CCCCCS(C)(=O)=O` [Example 12, 2-methyl-1-[5-(methylsulfonyl)pentyl]-1H-imidazo[4,5-c]quinolin-4-amine], the melting point lay within 235 to 240 °C. In addition, the minimal effective concentration in data set [1] stood at 10 µM. Moreover, the minimal effective concentration in data set [2] stood at 0.12 µM.

As to `CS(=O)(=O)CCCCCn1cnc2c(N)nc3ccccc3c21` [Example 14, 1-[5-(methylsulfonyl)pentyl]-1H-imidazo[4,5-c]quinolin-4-amine], the melting point lay within 199 to 201 °C. In addition, the minimal effective concentration in data set [1] amounted to 10 µM. The minimal effective concentration in data set [2] was found to be 3.33 µM.

`CCCCCCc1nc2c(N)nc3ccccc3c2n1CCCCCS(C)(=O)=O` [Example 15, 2-hexyl-1-[5-(methylsulfonyl)pentyl]-1H-imidazo[4,5-c]quinolin-4-amine] had a melting point of 168 to 171 °C. Also, in data set [1], the “Lowest Effective Concentration (μM) Tumor Necrosis Factor” value was “*”. Also, the minimal effective concentration in data set [2] is 0.04 µM.

Compound `COCCc1nc2c(N)nc3ccccc3c2n1CCCCCS(C)(=O)=O` [Example 16, 2-(2-methoxyethyl)-1-[5-(methylsulfonyl)pentyl]-1H-imidazo[4,5-c]quinolin-4-amine] displayed a melting point of 158 to 160 °C. Besides, in data set [1], the minimal effective concentration stood at 0.04 µM. Besides, the minimal effective concentration in data set [2] was found to be 0.01 µM.

Compound `CCCCc1nc2c(N)nc3ccccc3c2n1CCCCCSC` [Example 17, 2-butyl-1-[5-(methylthio)pentyl]-1H-imidazo[4,5-c]quinolin-4-amine] yielded a melting point of 112 to 114 °C. Besides, the minimal effective concentration in data set [1] turned out to be 0.04 µM. Besides, the minimal effective concentration in data set [2] was 0.01 µM.

Compound `CCCCc1nc2c(N)nc3ccccc3c2n1CCCCC[S+](C)[O-]` (stereo not drawn) [Example 18, 2-butyl-1-[5-(methylsulfinyl)pentyl]-1H-imidazo[4,5-c]quinolin-4-amine] displayed a melting point of 119 to 121 °C. Also, in data set [1], the minimal effective concentration was 0.12 µM. For the same compound, the minimal effective concentration in data set [2] came to 0.01 µM.

On to `CCCCc1nc2c(N)nc3ccccc3c2n1CCCS(C)(=O)=O` [Example 19, 2-butyl-1-[3-(methylsulfonyl)propyl]-1H-imidazo[4,5-c]quinolin-4-amine], for which the melting point is 233 to 236 °C. Further, the minimal effective concentration in data set [1] is 0.37 µM. Also, the minimal effective concentration in data set [2] amounted to 0.04 µM.

Turning to `CCCCc1nc2c(N)nc3ccccc3c2n1CCCS(=O)(=O)c1ccccc1` [Example 20, 2-butyl-1-[3-(phenylsulfonyl)propyl]-1H-imidazo[4,5-c]quinolin-4-amine], the melting point fell in the range of 224 to 227 °C. Moreover, in data set [1], the minimal effective concentration was 0.37 µM. For the same compound, in data set [2], the minimal effective concentration is 0.04 µM.

In turn, `CCCc1nc2c(N)nc3ccccc3c2n1CCCCCS(C)(=O)=O` [Example 21, 1-[5-(methylsulfonyl)pentyl]-2-propyl-1H-imidazo[4,5-c]quinolin-4-amine] showed a melting point of 179 to 181 °C. For the same compound, in data set [1], the minimal effective concentration worked out at 0.37 µM. Also, the minimal effective concentration in data set [2] worked out at 0.12 µM.

In turn, `CSCCCn1c(C)nc2c(N)nc3ccccc3c21` [Example 22, 2-methyl-1-[3-(methylthio)propyl]-1H-imidazo[4,5-c]quinolin-4-amine] came in with a melting point of 199 to 202 °C. Further, in data set [1], the minimal effective concentration came out at 1.11 µM. Also, the minimal effective concentration in data set [2] amounted to 0.37 µM.

The compound `Cc1nc2c(N)nc3ccccc3c2n1CCCS(C)(=O)=O` [Example 23, 2-methyl-1-[3-(methylsulfonyl)propyl]-1H-imidazo[4,5-c]quinolin-4-amine] yielded a melting point of 225 to 228 °C. Further, the minimal effective concentration in data set [1] was found to be 10 µM. Further, the minimal effective concentration in data set [2] turned out to be 3.33 µM.

`CCc1nc2c(N)nc3ccccc3c2n1CCCSC` [Example 24, 2-ethyl-1-[3-(methylthio)propyl]-1H-imidazo[4,5-c]quinolin-4-amine] registered a melting point of 210 to 212 °C. Besides, the minimal effective concentration in data set [1] is 0.37 µM. Further, the minimal effective concentration in data set [2] came out at 0.12 µM.

As for `Cc1nc2c(N)nc3c(c2n1CCCCS(=O)(=O)c1ccc(F)cc1)CCCC3` [Example 77, 2-methyl-1-{4-[(4-fluorophenyl)sulfonyl]butyl}-6,7,8,9-tetrahydro-1H-imidazo[4,5-c]quinolin-4-amine], the melting point lay in the range of 159 to 162 °C.

Consider `Cc1nc2c(N)nc3c(c2n1CCCCS(=O)(=O)C(C)(C)C)CCCC3` [Example 78, 2-methyl-1-{4-[(1,1-dimethylethyl)sulfonyl]butyl}-6,7,8,9-tetrahydro-1H-imidazo[4,5-c]quinolin-4-amine], for which the melting point lay within 208 to 210 °C.

Consider `CCOCc1nc2c(N)nc3c(c2n1CCCCS(C)(=O)=O)CCCC3` [Example 79, 2-ethoxymethyl-1-(4-methanesulfonyl-butyl)-6,7,8,9-tetrahydro-1H-imidazo[4,5-c]quinolin-4-amine], for which the melting point is 170 to 171 °C.
